Source: BigSolDB 2.1

Settings: in water

O=[N+]([O-])c1ccc(/C=C/c2ccc([N+](=O)[O-])cc2S(=O)(=O)[O-])c(S(=O)(=O)[O-])c1.[Na+].[Na+]
Settings | solubility (mole fraction)
284.85 K | 0.0013
290.35 K | 0.0017
293.05 K | 0.00197
296.45 K | 0.00228
301.45 K | 0.00302
304.55 K | 0.00353
307.75 K | 0.00394
309.85 K | 0.00434
312.05 K | 0.00498
316.25 K | 0.00595
319.25 K | 0.00674
321.95 K | 0.00756
